Assay results published in patent US6617117B1, “MAP kinases: polypeptides, polynucleotides and uses thereof” (Medical Research Council, priority 1996, dated 2003).

How the values were obtained:
SAPK3 (GST-SAPK3) = molecular target: T1, SAPK3 (GST-SAPK3) (Rattus norvegicus, UniProt Q63538); experiment: Effect of SB 203580 on SKK3-activated SAPK3 (FIG. 19); type: biochemical; settings: even at a concentration of 0.1 mM; activated in vitro with purified SKK3
T1 construct: made in house; host or cells: E. coli BL21 (DE3)
T1 sequence (Q63538 1-367): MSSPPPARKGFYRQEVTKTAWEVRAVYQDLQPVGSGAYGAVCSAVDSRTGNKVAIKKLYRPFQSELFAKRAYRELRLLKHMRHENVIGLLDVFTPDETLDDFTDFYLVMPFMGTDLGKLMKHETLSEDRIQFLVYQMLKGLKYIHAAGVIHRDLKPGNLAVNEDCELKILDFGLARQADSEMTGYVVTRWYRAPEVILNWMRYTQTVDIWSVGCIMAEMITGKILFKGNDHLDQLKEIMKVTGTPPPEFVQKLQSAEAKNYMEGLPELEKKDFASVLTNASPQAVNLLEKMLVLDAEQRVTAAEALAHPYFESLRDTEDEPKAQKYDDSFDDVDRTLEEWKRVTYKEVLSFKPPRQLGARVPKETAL
Experimental: (§1) Protein kinase assays. SAPK3 was assayed routinely by the phosphorylation of MBP. SAPK3 (0.5 or 1 μM) in 40 μl of 25 mM Tris/HCl pH 7.5, 0.1 mM EGTA, 0.1 mM sodium orthovanadate, 1 μM PKI and 0.33 mg/ml MBP was incubated for 3 min at 30° C. before initiating the reaction with 10 μl of 50 mM magnesium acetate-0.5 mM [γ-^32P]ATP. After 20 min at 30° C. 40 μl aliquots were withdrawn, spotted on to 1.5×1.5 cm squares of Whatman P81 phosphocellulose paper and immersed in 75 mM phosphoric acid. After washing and drying the papers (Alessi et al, 1995b), ^32P radioactivity incorporated into MBP was measured. One unit of activity was that amount of enzyme which incorporated 1 nmol of phosphate into MBP in 1 min.

human SAPK3 = molecular target: T2, human SAPK3 (Homo sapiens, UniProt P53778); experiment: Inhibition of SAPK3, MBP phosphorylation (FIG. 9); type: biochemical
T2 construct: made in house; host or cells: E. coli BL21(DE3)
T2 sequence (P53778 1-367): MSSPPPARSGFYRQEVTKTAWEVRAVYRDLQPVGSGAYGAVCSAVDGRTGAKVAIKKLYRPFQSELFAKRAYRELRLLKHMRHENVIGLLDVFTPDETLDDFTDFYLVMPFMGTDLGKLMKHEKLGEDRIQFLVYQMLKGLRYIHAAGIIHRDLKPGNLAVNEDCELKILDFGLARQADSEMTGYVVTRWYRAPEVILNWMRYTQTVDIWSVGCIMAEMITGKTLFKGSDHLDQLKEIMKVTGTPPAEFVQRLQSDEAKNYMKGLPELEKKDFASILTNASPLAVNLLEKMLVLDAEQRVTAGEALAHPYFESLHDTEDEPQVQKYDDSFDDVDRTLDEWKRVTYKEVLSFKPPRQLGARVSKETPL
Experimental: SAPK4, SAPK2a and SAPK2b were assayed routinely by the phosphorylation of MBP, exactly as described for SAPK3 in Example 4 and Cuenda et al, 1997. One unit of activity was that amount of enzyme which incorporated 1 nmol of phosphate into MBP in 1 min. SAPK4 activators were assayed by their ability to activate GST-SAPK4, as described for GST-SAPK3 in Example 4 and Cuenda et al, 1997. Control experiments were carried out in which GST-SAPK4 was omitted. One unit of SAPK4 activator was that amount which increased SAPK4 activity by I U/min. […] SAPK2a activators were assayed by their ability to activate the X. laevis homologue of SAPK2a (Meier et al, 1996). Activated SAPK2a itself was measured by the activation of GST-MAPKAP-K2(46400).
as §1

MAPKAP-K2 = settings: every mammalian cell so far examined; cited from earlier work

Compound: C[S+]([O-])c1ccc(-c2nc(-c3ccncc3)c(-c3ccc(F)cc3)[nH]2)cc1 (stereo not shown) [SB 203580]
- Inhibition of SAPK3 (SAPK3 (GST-SAPK3)): not inhibited significantly
- Inhibition of SAPK3 (human SAPK3; SAPK3 activated by SKK3 in vitro): not inhibited
- Inhibition of dephosphorylated form of SAPK3 (human SAPK3; dephosphorylated form, <0.1% of the activity of the phosphorylated form, data not shown): failed to inhibit
- Suppression of stress- and cytokine-induced activation of MAPKAP-K2 (MAPKAP-K2): 80-95%
